From PubChem BioAssay AID248 (DTP/NCI, 2004)
Toxic doses and inconclusive results are not listed.

System: L1210 leukemia ip in BDF1 mice, survival T/C
Experiment: NCI In Vivo Anticancer Drug Screen. Data for tumor model L1210 Leukemia (intraperitoneal) in B6D2F1 (BDF1) mice
Settings: endpoint: mean survival time, higher = longer survival
How it was run: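 Read-out is survival time, reported as the treated-group measurement over the vehicle-control measurement.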

[1] = dose: 100.0 mg/kg/injection, schedule: Q01DX009 (ip), vehicle: Klucel (hydroxypropylcellulose) (HPC)
[2] = dose: 200.0 mg/kg/injection, schedule: Q01DX009 (ip), vehicle: Klucel (hydroxypropylcellulose) (HPC)
[3] = dose: 400.0 mg/kg/injection, schedule: Q01DX009 (ip), vehicle: Klucel (hydroxypropylcellulose) (HPC)
[4] = dose: 100.0 mg/kg/injection, schedule: Q01DX009 (ip), vehicle: saline with Tween-80
[5] = dose: 200.0 mg/kg/injection, schedule: Q01DX009 (ip), vehicle: saline with Tween-80
[6] = dose: 100.0 mg/kg/injection, schedule: Q01DX009 (ip), vehicle: saline
[7] = dose: 200.0 mg/kg/injection, schedule: Q01DX009 (ip), vehicle: saline
[8] = dose: 100.0 mg/kg/injection, schedule: Q04DX003 (ip), vehicle: saline with Tween-80
[9] = dose: 200.0 mg/kg/injection, schedule: Q04DX003 (ip), vehicle: saline with Tween-80
[10] = dose: 400.0 mg/kg/injection, schedule: Q04DX003 (ip), vehicle: saline with Tween-80
[11] = dose: 100.0 mg/kg/injection, schedule: Q01DX009 (ip), vehicle: other
[12] = dose: 200.0 mg/kg/injection, schedule: Q01DX009 (ip), vehicle: other
[13] = dose: 400.0 mg/kg/injection, schedule: Q01DX009 (ip), vehicle: other
[14] = dose: 100.0 mg/kg/injection, schedule: Q01DX001 (ip), vehicle: saline
[15] = dose: 200.0 mg/kg/injection, schedule: Q01DX001 (ip), vehicle: saline
[16] = dose: 400.0 mg/kg/injection, schedule: Q01DX001 (ip), vehicle: saline
[17] = dose: 25.0 mg/kg/injection, schedule: Q01DX009 (ip), vehicle: saline

Compound: Brc1cccc2ccccc12
- T/C (dose: 25.0 mg/kg/injection, schedule: Q01DX009 (ip), vehicle: Klucel (hydroxypropylcellulose) (HPC)): 89 % of control
- T/C (dose: 50.0 mg/kg/injection, schedule: Q01DX009 (ip), vehicle: Klucel (hydroxypropylcellulose) (HPC)): 86 % of control
- T/C [1]: 99 % of control
- T/C (dose: 100.0 mg/kg/injection, schedule: Q04DX002 (ip), vehicle: Klucel (hydroxypropylcellulose) (HPC)): 112 % of control
- T/C (dose: 200.0 mg/kg/injection, schedule: Q04DX002 (ip), vehicle: Klucel (hydroxypropylcellulose) (HPC)): 105 % of control
- T/C (dose: 400.0 mg/kg/injection, schedule: Q04DX002 (ip), vehicle: Klucel (hydroxypropylcellulose) (HPC)): 119 % of control

Compound: CCOC(=O)c1cc(=O)c2cc(S(=O)(=O)F)ccc2[nH]1
- T/C [1]: 95 % of control
- T/C [2]: 97 % of control
- T/C [3]: 97 % of control

Compound: CC(=O)Nc1ccc(C(C)(C)C)cc1
- T/C (dose: 100.0 mg/kg/injection, schedule: Q01DX001 (ip), vehicle: saline with Tween-80): 95 % of control
- T/C (dose: 200.0 mg/kg/injection, schedule: Q01DX001 (ip), vehicle: saline with Tween-80): 95 % of control
- T/C (dose: 400.0 mg/kg/injection, schedule: Q01DX001 (ip), vehicle: saline with Tween-80): 95 % of control

Compound: C=CCNc1ccc([N+](=O)[O-])cc1[N+](=O)[O-]
- T/C (dose: 100.0 mg/kg/injection, schedule: Q01DX001 (ip), vehicle: steriod suspending solution): 91 % of control
- T/C (dose: 200.0 mg/kg/injection, schedule: Q01DX001 (ip), vehicle: steriod suspending solution): 98 % of control

Compound: O=C(O)c1cccc2[nH]c(=O)oc(=O)c12
- T/C [4]: 103 % of control
- T/C [5]: 106 % of control

Compound: COC(CO)C(O)C(O)C=O (configuration not stated)
- T/C [6]: 93 % of control
- T/C [7]: 97 % of control
- T/C (dose: 400.0 mg/kg/injection, schedule: Q01DX009 (ip), vehicle: saline): 102 % of control

Compound: Brc1cccc[n+]1Cc1ccc(C[n+]2ccccc2Br)cc1
- T/C (dose: 2.66 mg/kg/injection, schedule: Q01DX Z (ip), vehicle: saline): 98 % of control

Compound: O=C1c2ccccc2-c2ccc(-c3ccccc3)c3ccc(CCc4ccccc4)c1c23
- T/C [8]: 100 % of control
- T/C [9]: 89 % of control
- T/C [10]: 89 % of control

Compound: CCC1(O)CC2CN(CCc3c([nH]c4ccccc34)C(C(=O)OC)(c3cc4c(cc3OC)N(C)C3C(O)(C(=O)NCCO)C(O)C5(CC)C=CCN6CCC43C65)C2)C1 (configuration not stated)
- T/C (dose: 0.16 mg/kg/injection, schedule: Q01DX009 (ip), vehicle: saline): 123 % of control
- T/C (dose: 0.39 mg/kg/injection, schedule: Q04DX003 (ip), vehicle: saline): 158 % of control
- T/C (dose: 1.2 mg/kg/injection, schedule: Q01DX009 (ip), vehicle: saline): 116 % of control
- T/C (dose: 389.0 micrograms/kg/injection, schedule: Q04DX003 (ip), vehicle: saline): 118 % of control
- T/C (dose: 648.0 micrograms/kg/injection, schedule: Q04DX003 (ip), vehicle: saline): 106 % of control
- T/C (dose: 1080.0 micrograms/kg/injection, schedule: Q04DX003 (ip), vehicle: saline): 123 % of control
- T/C (dose: 5000.0 micrograms/kg/injection, schedule: Q04DX003 (ip), vehicle: saline): 115 % of control

Compound: O=C(NC/C=C/Br)NC1CCCc2ccccc21 (configuration not stated)
- T/C [11]: 106 % of control
- T/C [12]: 110 % of control
- T/C [13]: 100 % of control

Compound: CCC(O)(c1ccccc1)c1ccccc1
- T/C [8]: 103 % of control
- T/C [9]: 99 % of control
- T/C [10]: 98 % of control

Compound: CC1(C)CCC2CCCCC2O1 (configuration not stated)
- T/C [14]: 102 % of control
- T/C [15]: 98 % of control
- T/C [16]: 96 % of control

Compound: O=NN(CCCl)C(=O)NC1CSCSC1
- T/C (dose: 7.0 mg/kg/injection, schedule: Q01DX001 (ip), vehicle: other): 284 % of control
- T/C (dose: 10.0 mg/kg/injection, schedule: Q01DX001 (ip), vehicle: other): 322 % of control
- T/C (dose: 15.0 mg/kg/injection, schedule: Q01DX001 (ip), vehicle: other): 333 % of control
- T/C (dose: 25.0 mg/kg/injection, schedule: Q01DX001 (ip), vehicle: other): 168 % of control
- T/C (dose: 30.0 mg/kg/injection, schedule: Q01DX001 (ip), vehicle: other): 277 % of control
- T/C (dose: 45.0 mg/kg/injection, schedule: Q01DX001 (ip), vehicle: other): 107 % of control

Compound: c1ccc2c3c([nH]c2c1)CCC3
- T/C (dose: 100.0 mg/kg/injection, schedule: Q01DX001 (ip), vehicle: carboxymethylcellulose (CMC)): 93 % of control
- T/C (dose: 200.0 mg/kg/injection, schedule: Q01DX001 (ip), vehicle: carboxymethylcellulose (CMC)): 98 % of control
- T/C (dose: 400.0 mg/kg/injection, schedule: Q01DX001 (ip), vehicle: carboxymethylcellulose (CMC)): 102 % of control

Compound: O=C(CNC(=O)c1ccccc1)Oc1c(Cl)c(Cl)c(Cl)c(Cl)c1Cl
- T/C [11]: 104 % of control
- T/C [12]: 98 % of control
- T/C [13]: 93 % of control

Compound: CC(=O)NC(C)(SC(c1ccccc1)c1ccccc1)C(=O)O (configuration not stated)
- T/C (dose: 100.0 mg/kg/injection, schedule: Q01DX001 (ip), vehicle: Klucel (hydroxypropylcellulose) (HPC)): 100 % of control
- T/C (dose: 200.0 mg/kg/injection, schedule: Q01DX001 (ip), vehicle: Klucel (hydroxypropylcellulose) (HPC)): 100 % of control
- T/C (dose: 400.0 mg/kg/injection, schedule: Q01DX001 (ip), vehicle: Klucel (hydroxypropylcellulose) (HPC)): 105 % of control

Compound: O=C1c2ccccc2C(=O)C2C1C(c1ccccc1)N(c1ccccc1)C2c1ccccc1 (configuration not stated)
- T/C (dose: 50.0 mg/kg/injection, schedule: Q01DX001 (ip), vehicle: saline): 94 % of control
- T/C [14]: 105 % of control
- T/C [15]: 94 % of control
- T/C [16]: 103 % of control

Compound: CN(C)C1=NC(=O)C(c2ccccc2)O1 (configuration not stated)
- T/C [17]: 104 % of control
- T/C (dose: 50.0 mg/kg/injection, schedule: Q01DX009 (ip), vehicle: saline): 111 % of control
- T/C (dose: 50.0 mg/kg/injection, schedule: Q04DX003 (ip), vehicle: saline): 101 % of control
- T/C [6]: 111 % of control
- T/C [7]: 101 % of control
- T/C (dose: 200.0 mg/kg/injection, schedule: Q04DX003 (ip), vehicle: saline): 100 % of control
- T/C (dose: 400.0 mg/kg/injection, schedule: Q04DX003 (ip), vehicle: saline): 100 % of control

Compound: Cc1cc(Cl)ccc1NC(=O)COc1ccc(Cl)cc1Cl
- T/C (dose: 50.0 mg/kg/injection, schedule: Q01DX009 (ip), vehicle: saline with Tween-80): 87 % of control
- T/C [4]: 87 % of control
- T/C [8]: 93 % of control
- T/C [5]: 96 % of control
- T/C [9]: 91 % of control

Compound: CC(C)(C)C(=O)Nc1ccc(F)cc1
- T/C [1]: 110 % of control
- T/C [2]: 94 % of control
- T/C [3]: 116 % of control

Compound: CCCCN(CC)CC#N
- T/C (dose: 6.25 mg/kg/injection, schedule: Q01DX009 (ip), vehicle: saline): 104 % of control
- T/C (dose: 12.5 mg/kg/injection, schedule: Q01DX009 (ip), vehicle: saline): 101 % of control
- T/C (dose: 12.5 mg/kg/injection, schedule: Q04DX003 (ip), vehicle: saline): 94 % of control
- T/C [17]: 93 % of control
- T/C (dose: 25.0 mg/kg/injection, schedule: Q04DX003 (ip), vehicle: saline): 89 % of control

Compound: Cc1ccc(SNc2ccccc2)cc1
- T/C [8]: 92 % of control
- T/C [9]: 100 % of control

Compound: CCOC(=O)/C=C(/CC(=O)OCC)OCC
- T/C (dose: 50.0 mg/kg/injection, schedule: Q01DX005 (ip), vehicle: saline): 104 % of control
- T/C (dose: 100.0 mg/kg/injection, schedule: Q01DX005 (ip), vehicle: saline): 94 % of control
- T/C (dose: 200.0 mg/kg/injection, schedule: Q01DX005 (ip), vehicle: saline): 96 % of control
- T/C (dose: 400.0 mg/kg/injection, schedule: Q01DX005 (ip), vehicle: saline): 100 % of control

Compound: Cc1ccc(S(=O)(=O)N=S(Cc2ccccc2)Cc2ccccc2)cc1
- T/C (dose: 50.0 mg/kg/injection, schedule: Q01DX001 (ip), vehicle: saline sonified): 103 % of control
- T/C (dose: 100.0 mg/kg/injection, schedule: Q01DX001 (ip), vehicle: saline sonified): 108 % of control
- T/C (dose: 200.0 mg/kg/injection, schedule: Q01DX001 (ip), vehicle: saline sonified): 95 % of control
